Test [1] concerns the target T1, Delta-type opioid receptor (Homo sapiens, UniProt P41143). Description: DOR antagonists, SAR follow-up, image-based (AID 2357). The format is functional.
Test [2] deals with T2, Kappa-type opioid receptor (Homo sapiens, UniProt P41145). Description: kappa opioid receptor blockers, cell-based, luminescence, beta-arrestin, SAR follow-up (AID 2285). It is filed as functional.
Test [3] concerns the target T3, Mu-type opioid receptor (Homo sapiens, UniProt P35372). Description: MOR agonists by imaging, SAR follow-up, image-based (AID 2352). The format is functional.
Test [4] addresses T2, Kappa-type opioid receptor. Description: KOR agonist analogs, imaging readout, SAR follow-up, image-based (AID 2359). The format is functional.
In test [5] the target is T1, Delta-type opioid receptor. Description: DOR agonists, SAR follow-up, image-based (AID 2370). It is filed as functional.
Test [6] concerns the target T3, Mu-type opioid receptor. Description: MOR antagonists, SAR follow-up, image-based (AID 2420).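 Also: compounds added before stimulation of receptor with agonist DAMGO.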 The format is functional.
For test [7], the target named is T2, Kappa-type opioid receptor. Description: KOR antagonists by imaging, SAR follow-up, image-based (AID 2348). It is filed as functional.
For test [8], the target named is Cannabinoid receptor 1 (Homo sapiens, UniProt P21554). Description: SAR analysis of antagonists of the Cannabinoid Receptor 1 using an Image-Based Assay. [Related pubchem assays (depositor defined):AID1961, AID1965]. The format is functional.
Sequence of Cannabinoid receptor 1 (P21554 whole entry): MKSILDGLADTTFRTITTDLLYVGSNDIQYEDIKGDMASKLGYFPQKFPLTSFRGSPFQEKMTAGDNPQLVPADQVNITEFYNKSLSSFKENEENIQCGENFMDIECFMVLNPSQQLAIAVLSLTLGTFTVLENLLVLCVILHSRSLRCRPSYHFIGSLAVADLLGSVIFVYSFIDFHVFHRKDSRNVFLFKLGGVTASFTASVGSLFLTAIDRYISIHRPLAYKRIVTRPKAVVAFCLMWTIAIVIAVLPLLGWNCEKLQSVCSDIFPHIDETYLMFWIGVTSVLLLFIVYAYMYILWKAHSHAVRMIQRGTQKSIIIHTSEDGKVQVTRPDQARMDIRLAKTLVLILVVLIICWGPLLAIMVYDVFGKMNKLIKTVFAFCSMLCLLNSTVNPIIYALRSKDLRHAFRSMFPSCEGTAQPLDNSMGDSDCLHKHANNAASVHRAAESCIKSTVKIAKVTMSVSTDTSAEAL
Test [9] has as its target T4, Cannabinoid receptor 2 (Homo sapiens, UniProt P34972). Description: SAR analysis of antagonists of the Cannabinoid Receptor 2 using an Image-Based Assay - Set 2. [Related pubchem assays (depositor defined):AID1961, AID1965]. It is filed as functional.
In test [10] the target is T5, Polyadenylate-binding protein 1 (Homo sapiens, UniProt P11940). Description: PABP1 MLLE–PAM2 interaction inhibitors, dose response, miRNA deadenylation inhibitor project, biochemical, fluorescence polarization, Cy5-PAM2 peptide, secondary (AID 602260). It is filed as functional. Conditions: read-out: IC50_Mean.
T5 sequence (P11940 whole entry): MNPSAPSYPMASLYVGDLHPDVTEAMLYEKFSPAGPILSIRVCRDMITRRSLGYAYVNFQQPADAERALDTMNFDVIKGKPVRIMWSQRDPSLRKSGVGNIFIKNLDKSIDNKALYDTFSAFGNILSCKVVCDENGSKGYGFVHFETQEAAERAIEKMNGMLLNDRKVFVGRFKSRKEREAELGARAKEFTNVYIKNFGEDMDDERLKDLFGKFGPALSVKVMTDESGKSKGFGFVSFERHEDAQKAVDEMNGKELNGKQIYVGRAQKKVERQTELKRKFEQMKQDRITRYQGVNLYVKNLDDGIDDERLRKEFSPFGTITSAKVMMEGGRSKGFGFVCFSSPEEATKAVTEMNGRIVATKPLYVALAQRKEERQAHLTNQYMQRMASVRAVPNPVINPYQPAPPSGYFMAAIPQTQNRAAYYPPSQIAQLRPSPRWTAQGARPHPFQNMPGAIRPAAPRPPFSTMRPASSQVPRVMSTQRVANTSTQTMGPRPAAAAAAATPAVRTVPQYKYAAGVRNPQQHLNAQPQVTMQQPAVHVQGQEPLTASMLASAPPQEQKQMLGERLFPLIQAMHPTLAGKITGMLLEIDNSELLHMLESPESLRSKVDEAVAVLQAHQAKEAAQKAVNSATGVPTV
Test [11] concerns the target T6, Tyrosine-protein phosphatase non-receptor type 7 (Homo sapiens, UniProt P35236).
T6 sequence (P35236 whole entry): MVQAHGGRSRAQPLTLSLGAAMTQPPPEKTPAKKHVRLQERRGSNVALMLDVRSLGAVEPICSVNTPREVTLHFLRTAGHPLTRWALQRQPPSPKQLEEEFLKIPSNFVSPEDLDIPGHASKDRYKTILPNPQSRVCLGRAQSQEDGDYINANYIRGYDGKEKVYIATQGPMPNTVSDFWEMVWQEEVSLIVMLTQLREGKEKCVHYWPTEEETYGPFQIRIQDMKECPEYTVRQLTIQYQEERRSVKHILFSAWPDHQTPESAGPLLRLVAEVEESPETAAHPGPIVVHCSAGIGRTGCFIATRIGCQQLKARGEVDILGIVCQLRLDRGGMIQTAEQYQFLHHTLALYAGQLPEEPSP
Description: SAR analysis of chemical inhibitors of HePTP using a Fluorescent assay - Set 2. [Related pubchem assays (depositor defined):AID1059, AID1077, AID1661, AID2085, AID521]. It is filed as functional.

Test [12] concerns the target T7, G-protein coupled receptor 55 (Homo sapiens, UniProt Q9Y2T6). Description: GPR55 agonists via beta-arrestin recruitment, primary screen, imaging, U2OS cells, beta-arrestin-GFP redistribution (AID 1961). The format is functional. (In general: Activated receptors often draw arrestin, which recruitment assays turn into a signal.)
Test [13] has as its target T7, G-protein coupled receptor 55. Description: SAR analysis of selective Agonists of GPR55 using an Image-Based Assay. [Related pubchem assays (depositor defined):AID1961, AID1965]. It is filed as functional.
For test [14], the target named is T5, Polyadenylate-binding protein 1. Description: PABP1 MLLE–PAM2 binding inhibitor potency, dose response, biochemical, fluorescence polarization, FITC-PAM2 peptide (AID 602259). The format is functional. Conditions: read-out: IC50_Mean.
Test [15] addresses T4, Cannabinoid receptor 2. Description: SAR analysis of agonists of the Cannabinoid Receptor 2 using an Image-Based Assay - Set 2. [Related pubchem assays (depositor defined):AID1961, AID1965]. The format is functional.
The target in test [16] is Dual specificity protein phosphatase 3 (Homo sapiens, UniProt P51452). Description: SAR VHR1 Fluorescent Assay for In Vitro dose response studies Set 2. [Related pubchem assays (depositor defined):AID1654, AID1661, AID1878]. It is filed as functional.
Sequence of Dual specificity protein phosphatase 3 (P51452 whole entry): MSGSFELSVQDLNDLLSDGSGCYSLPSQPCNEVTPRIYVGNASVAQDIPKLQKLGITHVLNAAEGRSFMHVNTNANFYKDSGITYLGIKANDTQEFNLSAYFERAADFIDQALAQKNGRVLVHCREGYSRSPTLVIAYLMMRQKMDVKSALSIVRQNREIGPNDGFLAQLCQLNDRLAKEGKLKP
A short description of test [17]: cytotoxicity in HPDE-C7 cells, cell-based, fluorescence, HTS (AID 430). The format is functional. The conditions noted are these: Homo sapiens.
The target of test [18] is T8, Runt-related transcription factor 1/Core-binding factor subunit beta (Homo sapiens, UniProt Q01196+Q13951). Description: inhibitors of RUNX1 Runt–CBFb-SMMHC binding, biochemical, TR-FRET (AID 1438). It is filed as protein assay. For orientation: Time-resolved FRET reads energy transfer from a long-lived donor to a nearby acceptor.
T8 sequence (Q01196 whole entry, the tested form may be a part): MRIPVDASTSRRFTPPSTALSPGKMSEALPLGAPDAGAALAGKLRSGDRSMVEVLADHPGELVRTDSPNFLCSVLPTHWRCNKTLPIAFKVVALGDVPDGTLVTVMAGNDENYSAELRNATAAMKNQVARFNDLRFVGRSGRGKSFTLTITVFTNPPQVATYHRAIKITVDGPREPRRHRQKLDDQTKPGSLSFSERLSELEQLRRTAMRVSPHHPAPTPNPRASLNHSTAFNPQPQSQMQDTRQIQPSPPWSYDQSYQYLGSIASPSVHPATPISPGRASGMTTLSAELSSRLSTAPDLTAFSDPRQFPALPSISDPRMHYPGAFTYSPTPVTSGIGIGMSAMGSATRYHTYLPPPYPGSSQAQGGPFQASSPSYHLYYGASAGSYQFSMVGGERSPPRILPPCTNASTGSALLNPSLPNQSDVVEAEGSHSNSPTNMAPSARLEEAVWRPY
T8 sequence (Q13951 whole entry, the tested form may be a part): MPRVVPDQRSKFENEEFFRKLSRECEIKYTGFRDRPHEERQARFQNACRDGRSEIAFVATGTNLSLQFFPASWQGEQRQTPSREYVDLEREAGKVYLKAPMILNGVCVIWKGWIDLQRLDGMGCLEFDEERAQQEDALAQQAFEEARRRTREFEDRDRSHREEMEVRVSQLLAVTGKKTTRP
Test [19] deals with T8, Runt-related transcription factor 1/Core-binding factor subunit beta. Description: inhibitors of RUNX1 Runt–CBFb-SMMHC binding, primary screen, biochemical, FRET, Cerulean-Runt, Venus-CBFb-SMMHC, uHTS (AID 1434).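 Also: partner is the CBFb-SMMHC leukemia fusion protein rather than wild-type CBFb.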 The format is protein assay.
Test [20] is described as follows: cytotoxicity in KRAS-transformed pancreatic duct cells, primary screen, cell-based, fluorescence, HTS (AID 431).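 Also: cell line used: HPDE-C7K.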 The format is functional. The conditions noted are these: Homo sapiens.
The target in test [21] is T9, Estrogen receptor (Homo sapiens, UniProt P03372).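 Also: potency for inhibiting coactivator peptide recruitment to the receptor.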
T9 sequence (P03372 whole entry): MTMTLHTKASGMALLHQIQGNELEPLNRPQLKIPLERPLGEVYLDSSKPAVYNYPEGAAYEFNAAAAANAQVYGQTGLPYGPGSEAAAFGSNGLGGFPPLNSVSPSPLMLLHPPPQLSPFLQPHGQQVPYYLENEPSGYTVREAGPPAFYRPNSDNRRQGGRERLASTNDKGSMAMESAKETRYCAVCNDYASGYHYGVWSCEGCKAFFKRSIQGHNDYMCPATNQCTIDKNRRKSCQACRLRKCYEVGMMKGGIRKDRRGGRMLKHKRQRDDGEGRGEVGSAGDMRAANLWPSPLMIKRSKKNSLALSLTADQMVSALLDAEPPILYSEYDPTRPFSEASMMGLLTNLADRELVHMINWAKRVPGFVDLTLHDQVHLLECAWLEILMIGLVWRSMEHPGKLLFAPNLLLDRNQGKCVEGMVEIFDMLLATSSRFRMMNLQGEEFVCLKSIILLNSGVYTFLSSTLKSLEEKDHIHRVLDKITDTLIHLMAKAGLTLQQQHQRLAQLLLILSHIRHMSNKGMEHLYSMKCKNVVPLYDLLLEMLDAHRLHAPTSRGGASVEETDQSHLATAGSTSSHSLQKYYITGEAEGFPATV

IC50 and EC50 data for 3 compounds are collected here from ChEMBL document CHEMBL1201862, “PubChem BioAssay data set” (2004).

Calls of active or inactive are those of the source.

T2 sequence (P41145 whole entry): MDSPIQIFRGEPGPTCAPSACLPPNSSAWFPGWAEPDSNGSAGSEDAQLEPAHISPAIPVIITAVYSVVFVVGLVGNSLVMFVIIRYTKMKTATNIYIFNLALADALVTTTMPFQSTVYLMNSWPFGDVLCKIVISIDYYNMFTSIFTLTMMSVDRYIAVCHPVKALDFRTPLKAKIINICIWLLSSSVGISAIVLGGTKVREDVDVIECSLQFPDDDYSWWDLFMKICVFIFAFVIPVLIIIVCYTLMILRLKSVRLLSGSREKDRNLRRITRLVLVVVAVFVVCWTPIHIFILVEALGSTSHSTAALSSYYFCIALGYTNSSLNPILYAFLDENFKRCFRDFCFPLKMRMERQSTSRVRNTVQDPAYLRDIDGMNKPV
T4 sequence (P34972 whole entry): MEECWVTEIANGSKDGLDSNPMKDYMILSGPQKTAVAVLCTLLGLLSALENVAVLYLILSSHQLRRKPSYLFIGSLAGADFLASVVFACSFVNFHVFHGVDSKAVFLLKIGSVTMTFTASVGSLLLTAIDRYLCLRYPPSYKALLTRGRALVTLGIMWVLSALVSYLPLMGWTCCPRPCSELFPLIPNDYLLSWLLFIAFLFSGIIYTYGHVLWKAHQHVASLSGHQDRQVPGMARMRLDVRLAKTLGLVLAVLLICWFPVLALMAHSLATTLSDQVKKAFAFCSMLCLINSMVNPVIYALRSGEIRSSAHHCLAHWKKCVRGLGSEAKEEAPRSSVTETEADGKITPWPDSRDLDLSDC
T3 sequence (P35372 whole entry): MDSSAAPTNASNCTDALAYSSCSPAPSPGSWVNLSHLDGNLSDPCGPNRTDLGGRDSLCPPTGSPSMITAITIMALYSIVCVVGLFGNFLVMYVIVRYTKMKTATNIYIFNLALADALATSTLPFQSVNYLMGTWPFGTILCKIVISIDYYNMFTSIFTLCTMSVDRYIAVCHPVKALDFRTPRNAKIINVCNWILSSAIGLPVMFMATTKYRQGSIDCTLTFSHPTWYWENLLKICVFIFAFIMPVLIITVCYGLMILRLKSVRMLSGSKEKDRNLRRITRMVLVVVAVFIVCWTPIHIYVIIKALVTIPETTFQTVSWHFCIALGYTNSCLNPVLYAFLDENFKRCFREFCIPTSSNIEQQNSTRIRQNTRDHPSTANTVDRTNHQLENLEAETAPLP
T1 sequence (P41143 whole entry): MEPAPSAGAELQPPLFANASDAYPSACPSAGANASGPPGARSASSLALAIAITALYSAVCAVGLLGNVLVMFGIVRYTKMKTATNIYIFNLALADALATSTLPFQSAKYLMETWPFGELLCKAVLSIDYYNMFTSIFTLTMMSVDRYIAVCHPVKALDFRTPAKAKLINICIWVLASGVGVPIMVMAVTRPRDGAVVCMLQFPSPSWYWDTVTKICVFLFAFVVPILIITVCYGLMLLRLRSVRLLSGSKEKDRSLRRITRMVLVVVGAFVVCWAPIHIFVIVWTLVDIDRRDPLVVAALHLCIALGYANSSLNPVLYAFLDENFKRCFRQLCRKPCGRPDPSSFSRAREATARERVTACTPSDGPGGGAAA
T7 sequence (Q9Y2T6 whole entry): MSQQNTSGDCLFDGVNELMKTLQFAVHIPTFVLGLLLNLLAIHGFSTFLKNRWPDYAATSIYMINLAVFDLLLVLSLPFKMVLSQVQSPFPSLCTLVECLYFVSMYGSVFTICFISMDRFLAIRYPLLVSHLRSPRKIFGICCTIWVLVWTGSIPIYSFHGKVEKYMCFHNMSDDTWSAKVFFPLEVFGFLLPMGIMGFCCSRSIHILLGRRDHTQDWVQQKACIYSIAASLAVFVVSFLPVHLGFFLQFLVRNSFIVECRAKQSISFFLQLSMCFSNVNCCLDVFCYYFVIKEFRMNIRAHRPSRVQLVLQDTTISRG

Broadly, the EC50 is the concentration that produces a half-maximal response. In the case of `Cc1ccc(C)c(NC(S)=NC(NC(=O)OCc2ccccc2)C(Cl)(Cl)Cl)c1` (stereo unspecified), the IC50 was > 32 µM (inactive) in test [1], 6.2 µM (active) in test [2], > 32 µM (inactive) in test [6] and 1.53 µM (active) in test [7]. Further, the EC50 in test [3], in test [4] and in test [5] was > 32 µM (inactive) each time.

Regarding `CC(C)NS(=O)(=O)c1ccc(NC(=S)NC(=O)c2ccc(-c3ccccc3)cc2)cc1`, the IC50 in [8] is > 32 µM (inactive); in [9] it was > 32 µM (inactive); in [10], > 66 µM (inactive); in test [11], > 100 µM (inactive); in [14] it was > 66 µM (inactive); in test [16], > 100 µM (inactive). Also, the EC50 in [12] is 544 nM (active); in [13], 354 nM (active); in [15] it was > 32 µM (inactive).

For the compound `N#Cc1c(NCCN)nc(NCc2ccccc2)c2c1CCN(Cc1ccccc1)C2`, the EC50 in test [17] and in [20] was > 20 µM (not active) throughout. Besides, the IC50 in test [18] was 47.8 µM (active); in test [19], 4.57 µM (active); in [21], 11.8 µM (active).
